This passage reports efficacy in % and chromatographic logP results from patent publication US8507472B2 (priority 2010, dated 2013).

One data set deals with Leptosphaeria nodorum. Description: Leptosphaeria nodorum test (wheat)/protective. Format: in vivo. Conditions: in vivo. As to the method: (§1) Solvent: 49 parts by weight of N,N-dimethylformamide
(§2) Emulsifier: 1 part by weight of alkylaryl polyglycol ether
(§3) To produce a suitable preparation of active compounds, 1 part by weight of active compound is mixed with the stated amounts of solvent and emulsifier, and the concentrate is diluted with water to the desired concentration.
To test for protective activity, young wheat plants are sprayed with the active compound preparation at the stated application rate. 1 day after the treatment, the plants are inoculated with an aqueous spore suspension of Leptosphaeria nodorum and then remain at 100% rel. atmospheric humidity and 22° C. for 48 h. The plants are then placed in a greenhouse at 90% rel. atmospheric humidity and a temperature of 22° C.
(§4) Evaluation is carried out 7-9 days after the inoculation. 0% means an efficacy which corresponds to that of the control, whereas an efficacy of 100% means that no infection is observed.

A further data set deals with Alternaria solani. Description: Alternaria test (tomato)/protective. Format: in vivo. Conditions: in vivo. On the procedure: as §1, §2
To produce a suitable preparation of active compound, 1 part by weight of active compound is mixed with the stated amounts of solvent and emulsifier, and the concentrate is diluted with water to the desired concentration.
To test for protective activity, young tomato plants are sprayed with the active compound preparation at the stated application rate. 1 day after the treatment, the plants are inoculated with a spore suspension of Alternaria solani and then remain at 100% rel. humidity and 22° C. for 24 h. The plants then remain at 96% rel. atmospheric humidity and a temperature of 20° C.
(§5) Evaluation is carried out 7 days after the inoculation. 0% means an efficacy which corresponds to that of the control, whereas an efficacy of 100% means that no infection is observed.

The test system of a further data set is Sphaerotheca fuliginea. Description: Sphaerotheca test (cucumber)/protective. Format: in vivo. The conditions noted are these: in vivo. As to the method: as §1, §2, §3
To test for protective activity, young cucumber plants are sprayed with the active compound preparation at the stated application rate. 1 day after the treatment, the plants are inoculated with a spore suspension of Sphaerotheca fuliginea. The plants are then placed in a greenhouse at 70% rel. atmospheric humidity and a temperature of 23° C.
as §5

The test system of another data set is Pyrenophora teres. The experiment in a line: Pyrenophora teres test (barley)/protective. The conditions noted are these: in vivo. Format: in vivo. On the procedure:
as §1, §2, §3
To test for protective activity, young barley plants are sprayed with the active compound preparation at the stated application rate. 1 day after the treatment, the plants are inoculated with an aqueous spore suspension of Pyrenophora teres and then remain at 100% rel. atmospheric humidity and 22° C. for 48 h. The plants are then placed in a greenhouse at 80% rel. atmospheric humidity and a temperature of 20° C.
as §4

For another data set, the system named is Phytophthora infestans. Format: in vivo. The conditions noted are these: in vivo.
Data set [1] can be described thus: log P determination by HPLC retention times (alkan-2-one calibration). Conditions: log P(HCOOH), HCOOH; preparation examples in the text.

In the case of `CC(C)C(=O)Nc1cc(-c2c(-c3ccc(F)cc3)nn3c2CCCCC3)ccn1` [Example 97], the efficacy in % was found to be 80% in the data set on Leptosphaeria nodorum, 70% in the data set with Alternaria solani, 100% in the data set with Sphaerotheca fuliginea and 100% with Pyrenophora teres.
Consider `CC(C)CC(=O)Nc1cc(-c2c(-c3ccc(F)cc3)nn3c2CCOC3)ccn1` [Example 112], for which the efficacy in % in the data set with Leptosphaeria nodorum is given as 90%; in the data set with Alternaria solani, 90%; in the data set on Sphaerotheca fuliginea, 95%; in the data set on Pyrenophora teres, 95%.
On to `O=C(Nc1cc(-c2c(-c3ccc(F)cc3)nn3c2CCOC3)ccn1)C1CCC1` [Example 109], for which the efficacy in % in the data set with Alternaria solani is 90%; in the data set with Sphaerotheca fuliginea it was 93%; in the data set with Pyrenophora teres, 95%.
On to `Nc1cc(-c2c(-c3ccc(F)cc3)nn3c2CCC3)ccn1` [Example 69], for which the efficacy in % with Phytophthora infestans is listed as 70%.
As for `COCC(=O)Nc1cc(-c2c(-c3ccc(F)cc3)nn3c2CCOC3)ccn1` [Example 94], the efficacy in % is on record as 90% with Alternaria solani, 93% with Sphaerotheca fuliginea and 95% in the data set with Pyrenophora teres.
Compound `FC(F)(F)c1ccc(-c2nn3c(c2-c2ccncc2)CCC3)cc1` [Example 17] registered an efficacy in % in the data set with Phytophthora infestans of 80%.
Consider `CC(=O)Nc1cc(-c2c(-c3ccc(F)cc3)nn3c2CCCCC3)ccn1` [Example 99], for which the efficacy in % in the data set with Leptosphaeria nodorum is listed as 95%; with Alternaria solani, 80%; with Sphaerotheca fuliginea it was 98%; with Pyrenophora teres, 95%.
`CC1(C)OCCc2c(-c3ccnc(NC(=O)C4CC4)c3)c(-c3ccc(F)cc3)nn21` [Example 84]: the efficacy in % with Leptosphaeria nodorum turned out to be 88%; with Sphaerotheca fuliginea, 98%; in the data set with Pyrenophora teres it was 94%.
In the data set with Phytophthora infestans, `CC(C)Nc1cc(-c2c(-c3ccc(Cl)cc3)nn3c2CCC3)ccn1` [Example 48] showed an efficacy in % of 70%.
`CCC(=O)Nc1cc(-c2c(-c3ccccc3)nn3c2COCC3)ccn1` [Example 100]: the efficacy in % in the data set with Leptosphaeria nodorum is given as 70%; with Alternaria solani, 80%; in the data set on Sphaerotheca fuliginea it was 95%; in the data set with Pyrenophora teres, 100%.
As for `CC(=O)Nc1cc(-c2c(-c3ccc(F)cc3)nn3c2CCOC3)ccn1` [Example 106], the values for the efficacy in % with Alternaria solani, in the data set on Sphaerotheca fuliginea and in the data set with Pyrenophora teres were 80%, 75% and 95%, respectively.
For the compound `CC1CC1C(=O)Nc1cc(-c2c(-c3ccc(F)cc3)nn3c2CCOC3(C)C)ccn1` (stereo not drawn) [Example 101], the efficacy in % in the data set on Leptosphaeria nodorum is given as 70%; with Alternaria solani, 90%; with Sphaerotheca fuliginea it was 98%; in the data set with Pyrenophora teres, 95%.
With `CN(C)C=Nc1cc(-c2c(-c3ccc(F)cc3)nn3c2CCCC3)ccn1` [Example 39], the results for the efficacy in % in the data set on Alternaria solani, in the data set on Phytophthora infestans and in the data set on Pyrenophora teres were 80%, 80% and 95%, respectively.
`CC1(C)OCCc2c(-c3ccnc(NC(=O)C4CCC4)c3)c(-c3ccc(F)cc3)nn21` [Example 102]: the efficacy in % came out at 90% in the data set on Leptosphaeria nodorum, 95% in the data set with Alternaria solani, 100% in the data set with Sphaerotheca fuliginea and 95% in the data set on Pyrenophora teres.
What is called chromatographic logP is a lipophilicity value derived from retention on a column. The compound `FC(F)(F)c1ccc(-c2cc3n(n2)CCC3)cc1` [VII-9, 2-[4-(Trifluoromethyl)phenyl]-5,6-dihydro-4H-pyrrolo[1,2-b]pyrazole] gave a chromatographic logP in data set [1] of 3.2.
The same measure, in the same setting: the result for `COC(=O)CC(=NN1CCC(C)C1=O)c1ccc(F)cc1` (stereo not drawn) reads 2.09; that for `FC(F)(F)c1ccc(C#Cc2ccncc2)cc1` [II-1, 4-{[4-(Trifluoromethyl)phenyl]ethynyl}pyridine], 2.86.
Turning to `CC(CCC(=O)NN=C(c1ccccc1)c1ccccc1)OS(C)(=O)=O` (stereo not drawn) [5-[2-(diphenylmethylene)hydrazino]-5-oxopentan-2-yl methanesulphonate], in data set [1], the chromatographic logP is 2.82.
Turning to `O=C(Nc1cc(-c2c(-c3ccc(F)cc3)nn3c2CCOC3)ccn1)C1CC1` [Example 107], the efficacy in % in the data set on Leptosphaeria nodorum is on record as 90%; with Sphaerotheca fuliginea, 100%; in the data set on Pyrenophora teres it was 95%.
In turn, `COC(=O)CC(=NN1C(=O)CCC1C)c1ccc(F)cc1` (stereo not drawn) [XXVIII-1, Methyl 3-(4-fluorophenyl)-3-[(2-methyl-5-oxopyrrolidin-1-yl)imino]propanoate] returned a chromatographic logP in data set [1] of 2.13.
In data set [1], `Fc1ccc(-c2cc3n(n2)CCCC3)cc1` [VII-1, 2-(4-Fluorophenyl)-4,5,6,7-tetrahydropyrazolo[1,5-a]pyridine] came in with a chromatographic logP of 2.76.
On the same count and under the same terms, the result for `c1cc(-c2cc3n(n2)CCC3)cs1` [VII-13, 2-[3-Thienyl]-5,6-dihydro-4H-pyrrolo[1,2-b]pyrazole] reads 2.01.
Regarding `Ic1c(-c2ccsc2)nn2c1CCCC2` [VIII-14, 2-(3-Thienyl)-3-iodo-4,5,6,7-tetrahydropyrazolo[1,5-a]pyridine], the chromatographic logP in data set [1] turned out to be 3.4.
In data set [1], `O=C(O)c1c(-c2ccccc2F)nn2c1CCC2` [XXXI-4, 2-(2-Fluorophenyl)-5,6-dihydro-4H-pyrrolo[1,2-b]pyrazole-3-carboxylic acid] returned a chromatographic logP of 1.35.
As for `CCC(=O)Nc1cc(-c2c(-c3ccc(F)cc3)nn3c2CCOC3)ccn1` [Example 95], the efficacy in % worked out at 90% with Leptosphaeria nodorum, 80% in the data set with Alternaria solani, 95% with Sphaerotheca fuliginea and 100% with Pyrenophora teres.
On to `OCc1cc(-c2ccccc2)n[nH]1` [XIV-1, (3-Phenyl-1H-pyrazol-5-yl)methanol], for which the chromatographic logP in data set [1] stood at 1.14.
Same read-out and setting: the result for `COC(=O)c1c(-c2ccc(F)cc2)nn2c1CCC2C` (stereo not drawn) [XXX-1, Methyl 2-(4-fluorophenyl)-6-methyl-5,6-dihydro-4H-pyrrolo[1,2-b]pyrazole-3-carboxylate] reads 2.84; that for `FC(F)(F)c1ccc(-c2nn3c(c2I)CCC3)cc1` [VIII-10, 2-[4-(Trifluoromethyl)phenyl]-3-iodo-5,6-dihydro-4H-pyrrolo[1,2-b]pyrazole], 4.13.
Still for that read-out and setting: the result for `c1csc(-c2cc3n(n2)CCCC3)c1` [VII-11, 2-(2-Thienyl)-4,5,6,7-tetrahydropyrazolo[1,5-a]pyridine] reads 2.42; that for `Brc1c(-c2ccccc2)nn2c1CSCC2` [VIII-18, 3-Bromo-2-phenyl-6,7-dihydro-4H-pyrazolo[5,1-c][1,4]thiazine], 3.42.
In the case of `CCC(=O)Nc1cc(-c2c(-c3ccc(F)cc3)nn3c2COCC3)ccn1` [Example 104], the efficacy in % with Alternaria solani was determined as 80%; with Sphaerotheca fuliginea, 93%; in the data set with Pyrenophora teres, 95%.
As for `O=C(C#CCCOCc1ccccc1)c1ccc(F)cc1` [XX-1, 5-(Benzyloxy)-1-(4-fluorophenyl)pent-2-yn-1-one], in data set [1], the chromatographic logP came to 3.89.
Still for that read-out and setting: the result for `FC(F)(F)c1cccc(-c2nn3c(c2I)CCC3)c1` [VIII-3, 2-[3-(Trifluoromethyl)phenyl]-3-iodo-5,6-dihydro-4H-pyrrolo[1,2-b]pyrazole] reads 4.11.
Regarding `CC(C)CNc1cc(-c2c(-c3ccc(F)cc3)nn3c2CCC3)ccn1` [Example 71], the efficacy in % with Phytophthora infestans and in the data set with Pyrenophora teres was 80% each time.
Regarding `Cc1ccc(-c2nn3c(c2I)CCC3)cc1` [VIII-7, 2-[4-Methylphenyl]-3-iodo-5,6-dihydro-4H-pyrrolo[1,2-b]pyrazole], in data set [1], the chromatographic logP was determined as 3.54.
On the same count and under the same terms, the result for `FC(F)(F)c1cccc(-c2cc3n(n2)CCC3)c1` [VII-6, 2-[3-(Trifluoromethyl)phenyl]-5,6-dihydro-4H-pyrrolo[1,2-b]pyrazole] reads 3.25; that for `OCc1cc(-c2ccc(F)cc2)nn1CCCl` [XIII-1, [1-(2-Chloroethyl)-3-(4-fluorophenyl)-1H-pyrazol-5-yl]methanol], 1.84.
`CC1CC1C(=O)Nc1cc(-c2c(-c3ccc(F)cc3)nn3c2CCOC3)ccn1` (stereo not drawn) [Example 108]: the efficacy in % in the data set on Leptosphaeria nodorum is on record as 70%; in the data set on Alternaria solani, 80%; with Sphaerotheca fuliginea, 95%; in the data set on Pyrenophora teres, 95%.
`O=C(Cc1ccccc1)Nc1cc(-c2c(-c3ccc(F)cc3)nn3c2CCCCC3)ccn1` [Example 98]: the figures for the efficacy in % with Alternaria solani, in the data set with Sphaerotheca fuliginea and in the data set with Pyrenophora teres were 90%, 90% and 95%, respectively.
As for `CC1CCc2c(C(=O)O)c(-c3ccccc3F)nn21` (stereo not drawn) [XXXI-3, 2-(2-Fluorophenyl)-6-methyl-5,6-dihydro-4H-pyrrolo[1,2-b]pyrazole-3-carboxylic acid], in data set [1], the chromatographic logP worked out at 1.64.
